Results: PMC7691360, “Synthesis of novel cytotoxic tetracyclic acridone derivatives and study of their molecular docking, ADMET, QSAR, bioactivity and protein binding properties” (Scientific Reports, 2020)

Columns and labels:
MDA-MB-231 cells = assay: MTT cytotoxicity assay against MDA-MB-231; type: cell-based; conditions: Homo sapiens, 48 h, read-out: Percentage of inhibition against treated concentrations; for activity at 1 µM: MDAMB231, 1 µM; for activity at 5 µM: MDAMB231, 5 µM; for activity at 10 µM: MDAMB231, 10 µM; for activity at 25 µM: MDAMB231, 25 µM; for activity at 50 µM: MDAMB231, 50 µM
Protocol: (§1) Anticancer activity of 7a–s has been evaluated by MTT [3-(4,5-dimethylthiazol-2-yl)-2,5-diphenyl-tetrazolium bromide] assay and the cell lines HT29 (ATCC: HTB-38), MDA-MB-231 (ATCC: HTB-26), HEK293T (ATCC: CRL-3216) were procured from American type cell culture collection (ATCC), Manassas, USA and other chemicals were procured from Sigma-Aldrich. Then absorbance (used as a measure of cell proliferation) was measured at 570 nm with a kinetic micro-plate reader (BioTek, Winooski, Vermont).
(§2) Having synthesized a series of the title compounds, all of them were screened for their in vitro anticancer profiles against a panel of human colorectal adenocarcinoma (HT29), human breast adenocarcinoma (MDA-MB-231) and mutated Human embryonic kidney 293 (HEK293T) cancer cell lines by using MTT colourmetric assay as per Johan van Meerloo protocol. The three cell lines were cultured in […] medium and supplemented with 10% FBS followed by 100 units/mL penicillin/ streptomycin and were cultured at 37 °C in 5% CO2. Cell proliferation of the growing cells was measured in terms of logarithmic standards. Analytically, all the cultured cells were plated onto 96 well plates at a starting density of 10^5 cells. Then all the cells were treated with title compounds 7a–s for a period of 48 h with different concentrations. After this incubation cell proliferation inhibition was determined by MTT assay and all the experiments were conducted in triplicates and readings were presented as mean ± SD and provided in Tables 1, 2 and 3.

HT29 cells = assay: MTT cytotoxicity assay against HT29; type: cell-based; conditions: Homo sapiens, 48 h, read-out: Percentage of inhibition against treated concentrations; for activity at 1 µM: HT-29, HT29, 1 µM; for activity at 5 µM: HT-29, HT29, 5 µM; for activity at 10 µM: HT-29, HT29, 10 µM; for activity at 25 µM: HT-29, HT29, 25 µM; for activity at 50 µM: HT-29, HT29, 50 µM
Protocol: as §1, §2

HEK293T cells = assay: MTT cytotoxicity assay against HEK293T; type: cell-based; conditions: Homo sapiens, HEK-293T, 48 h, read-out: Percentage of inhibition against treated concentrations
Protocol: as §1, §2

SMILES	activity at 1 µM (MDA-MB-231 cells)	activity at 5 µM (MDA-MB-231 cells)	activity at 10 µM (MDA-MB-231 cells)	activity at 25 µM (MDA-MB-231 cells)	activity at 50 µM (MDA-MB-231 cells)	melting point	activity at 1 µM (HT29 cells)	activity at 5 µM (HT29 cells)	activity at 10 µM (HT29 cells)	activity at 25 µM (HT29 cells)	activity at 50 µM (HT29 cells)	activity at 1 µM (HEK293T cells)	activity at 5 µM (HEK293T cells)	activity at 10 µM (HEK293T cells)	activity at 25 µM (HEK293T cells)	activity at 50 µM (HEK293T cells)
Cc1ccc(C(=O)N2CCn3c4ccccc4c(=O)c4cccc2c43)nc1 [Compound 7f, 3-(5-Methylpicolinoyl)-2,3-dihydropyrazino[3,2,1-de]acridin-7(1H)-one]	83.22 ± 0.21%	54.18 ± 0.35%	43.7 ± 0.54%	23.3 ± 0.26%	13.8 ± 0.73%	252 to 254 °C	86.92 ± 0.24%	61.4 ± 0.68%	49.24 ± 0.05%	29.09 ± 0.18%	17.1 ± 0.65%	92.96 ± 0.52%	90.92 ± 0.52%	88.07 ± 0.68%	80.53 ± 0.41%	47.46 ± 0.38%
Cc1cccc(C(=O)N2CCn3c4ccccc4c(=O)c4cccc2c43)n1 [Compound 7e, 3-(6-Methylpicolinoyl)-2,3-dihydropyrazino[3,2,1-de]acridin-7(1H)-one]	82.18 ± 0.79%	52.9 ± 0.75%	42.1 ± 0.52%	15.83 ± 0.14%	11.3 ± 0.22%	246 to 248 °C	84.9 ± 0.94%	60.82 ± 0.33%	49.1 ± 0.85%	27.6 ± 0.35%	16.3 ± 0.55%	98.73 ± 0.97%	97.08 ± 0.25%	95.2 ± 0.76%	91.72 ± 0.35%	54 ± 0.77%
O=C(c1ccccc1F)N1CCn2c3ccccc3c(=O)c3cccc1c32 [Compound 7p, 3-(2-Fluorobenzoyl)-2,3-dihydro-1H,7H-pyrazino[3,2,1-de]acridin-7-one]	89.82 ± 0.36%	68.3 ± 0.79%	61.77 ± 0.42%	51.43 ± 0.36%	30.3 ± 0.84%	225 to 227 °C	90.43 ± 0.77%	74.71 ± 0.22%	65.8 ± 0.76%	54.13 ± 0.37%	21 ± 0.22%	96.23 ± 0.74%	93.99 ± 0.91%	89.17 ± 0.81%	82.34 ± 0.34%	48.53 ± 0.12%
O=C(c1ccc(C(F)(F)F)cc1)N1CCn2c3ccccc3c(=O)c3cccc1c32 [Compound 7o, 3-(4-(Trifluoromethyl)benzoyl)-2,3-dihydro-1H,7H-pyrazino[3,2,1-de]acridin-7-one]	94.97 ± 0.73%	76.63 ± 0.13%	70 ± 0.93%	61.26 ± 0.29%	36.1 ± 0.64%	240 to 242 °C	93.92 ± 0.39%	77.8 ± 0.91%	69.54 ± 0.24%	58.23 ± 0.26%	24.3 ± 0.76%	95.33 ± 0.63%	91.17 ± 0.26%	88.65 ± 0.11%	80.68 ± 0.76%	48.2 ± 0.79%
O=C(c1ccc(O)cc1)N1CCn2c3ccccc3c(=O)c3cccc1c32 [Compound 7k, 3-(4-hydroxybenzoyl)-2,3-dihydro-1H,7H-pyrazino[3,2,1-de]acridin-7-one]	97.31 ± 0.74%	88.16 ± 0.43%	80.54 ± 0.54%	70.48 ± 0.17%	41.5 ± 0.91%	265 to 267 °C	96.6 ± 0.99%	81.84 ± 0.11%	74.68 ± 0.64%	66.23 ± 0.18%	28 ± 0.96%	99.55 ± 0.46%	97.77 ± 0.09%	96.79 ± 0.17%	95.46 ± 0.43%	56.26 ± 0.12%
O=C(c1ccccn1)N1CCn2c3ccccc3c(=O)c3cccc1c32 [Compound 7a, 3-Picolinoyl-2,3-dihydropyrazino[3,2,1-de]acridin-7(1H)-one]	84.42 ± 0.35%	55.22 ± 0.46%	44.52 ± 0.29%	25 ± 0.27%	14.7 ± 0.42%	232 to 234 °C	78.91 ± 0.42%	57.61 ± 0.39%	44.1 ± 0.86%	14.9 ± 0.36%	8.77 ± 0.72%	99.93 ± 0.11%	98.52 ± 0.96%	97.63 ± 0.45%	96.81 ± 0.2%	57 ± 0.81%
O=c1c2ccccc2n2c3c(cccc13)N(c1nccs1)CC2 [Compound 7j, 3-(Thiazol-2-yl)-2,3-dihydropyrazino[3,2,1-de]acridin-7(1H)-one]	87.9 ± 0.95%	58.4 ± 0.88%	48.2 ± 0.88%	39.53 ± 0.23%	23.3 ± 0.98%	239 to 241 °C	89.55 ± 0.11%	64.84 ± 0.45%	51.5 ± 0.94%	31.05 ± 0.19%	17.4 ± 0.87%	96.71 ± 0.63%	94.47 ± 0.83%	91.28 ± 0.48%	84.17 ± 0.37%	49.6 ± 0.38%
O=C(c1cccnc1)N1CCn2c3ccccc3c(=O)c3cccc1c32 [Compound 7b, 3-Nicotinoyl-2,3-dihydropyrazino[3,2,1-de]acridin-7(1H)-one]	86.22 ± 0.83%	56.42 ± 0.47%	46.91 ± 0.44%	32.3 ± 0.16%	19 ± 0.62%	231 to 233 °C	89.93 ± 0.66%	65.63 ± 0.27%	52.5 ± 0.82%	38.1 ± 0.42%	19.4 ± 0.35%	98.93 ± 0.66%	97.41 ± 0.57%	96.44 ± 0.46%	95.2 ± 0.29%	55.1 ± 0.88%
Cc1cccnc1C(=O)N1CCn2c3ccccc3c(=O)c3cccc1c32 [Compound 7g, 3-(3-Methylpicolinoyl)-2,3-dihydropyrazino[3,2,1-de]acridin-7(1H)-one]	81.56 ± 0.48%	52.3 ± 0.86%	41.7 ± 0.74%	14.6 ± 0.34%	10.6 ± 0.28%	221 to 223 °C	79.09 ± 0.34%	58.9 ± 0.93%	45.1 ± 0.54%	25.5 ± 0.44%	10 ± 0.91%	95.9 ± 0.54%	92.62 ± 0.31%	88.84 ± 0.07%	81.24 ± 0.32%	48.2 ± 0.86%
